Results from US12522583B2, “Benzimidazole derivatives and aza-benzimidazole derivatives as Janus kinase 2 inhibitors and uses thereof” (Dana-Farber Cancer Institute, Inc., priority 2018, dated 2026).

Assays:
Assay in all cases: KINOMEscan
Format in all cases: binding
Details in all cases: read-out: percent control
[1] = target: PRKG2 (Homo sapiens (Human), UniProt Q13237)
Text: (§1) Example 2. In Vitro Kinase Selectivity Profiling of the Compounds of the Present Disclosure

[2] = target: ABL1(H396P)-phosphorylated (Homo sapiens (Human), UniProt P00519, H396P)
Text: as §1

[3] = target: ABL1(E255K)-phosphorylated (Homo sapiens (Human), UniProt P00519, E255K)
Text: as §1

[4] = target: MRCKB (Homo sapiens (Human), UniProt Q9Y5S2)
Text: as §1

[5] = target: ASK2 (Homo sapiens (Human), UniProt O95382)
Text: as §1

[6] = target: RSK2(Kin.Dom.2-C-terminal) (Homo sapiens (Human), UniProt P51812)
Text: as §1

[7] = target: RPS6KA5(Kin.Dom.1-terminal) (Homo sapiens (Human), UniProt O75582)
Text: as §1

[8] = target: CDK4-cyclinD1 (Homo sapiens (Human), UniProt P11802)
Text: as §1

[9] = target: RPS6KA4(Kin.Dom.2-terminal) (Homo sapiens (Human), UniProt O75676)
Text: as §1

[10] = target: AMPK-alpha2 (Homo sapiens (Human), UniProt P54646)
Text: as §1

[11] = target: ACVR2A (Homo sapiens (Human), UniProt P27037)
Text: as §1

[12] = target: DCAMKL3 (Homo sapiens (Human), UniProt Q9C098)
Text: as §1

[13] = target: MYLK2 (Homo sapiens (Human), UniProt Q9H1R3)
Text: as §1

[14] = target: CAMK2B (Homo sapiens (Human), UniProt Q13554)
Text: as §1

[15] = target: PAK1 (Homo sapiens (Human), UniProt Q13153)
Text: as §1

[16] = target: EIF2AK1 (Homo sapiens (Human), UniProt Q9BQI3)
Text: as §1

[17] = target: PIK3CD (Homo sapiens (Human), UniProt O00329)
Text: as §1

[18] = target: TRPM6 (Homo sapiens (Human), UniProt Q9BX84)
Text: as §1

[19] = target: TNIK (Homo sapiens (Human), UniProt Q9UKE5)
Text: as §1

[20] = target: ABL1(M351T)-phosphorylated (Homo sapiens (Human), UniProt P00519, M351T)
Text: as §1

[21] = target: PRKCI (Homo sapiens (Human), UniProt P41743)
Text: as §1

[22] = target: PKN1 (Homo sapiens (Human), UniProt Q16512)
Text: as §1

[23] = target: PIK3CB (Homo sapiens (Human), UniProt P42338)
Text: as §1

[24] = target: CDK3 (Homo sapiens (Human), UniProt Q00526)
Text: as §1

[25] = target: p38-gamma (Homo sapiens (Human), UniProt P53778)
Text: as §1

[26] = target: KIT-autoinhibited (Homo sapiens (Human), UniProt P10721)
Text: as §1

[27] = target: FGFR2 (Homo sapiens (Human), UniProt P21802)
Text: as §1

[28] = target: CSNK1A1 (Homo sapiens (Human), UniProt P48729)
Text: as §1

[29] = target: EGFR(L747-E749del, A750P) (Homo sapiens (Human), UniProt P00533, A750P/DEL747-749)
Text: as §1

[30] = target: DYRK1A (Homo sapiens (Human), UniProt Q13627)
Text: as §1

[31] = target: PCTK3 (Homo sapiens (Human), UniProt Q07002)
Text: as §1

[32] = target: CSNK1G1 (Homo sapiens (Human), UniProt Q9HCP0)
Text: as §1

[33] = target: MAP3K3 (Homo sapiens (Human), UniProt Q99759)
Text: as §1

[34] = target: LRRK2(G20195) (Homo sapiens (Human), UniProt Q5S007, G2019S)
Text: as §1

[35] = target: PIP5K1A (Homo sapiens (Human), UniProt Q99755)
Text: as §1

[36] = target: DAPK2 (Homo sapiens (Human), UniProt Q9UIK4)
Text: as §1

[37] = target: KIT(V559D, T670I) (Homo sapiens (Human), UniProt P10721, T670I/V559D)
Text: as §1

[38] = target: MET(Y1235D) (Homo sapiens (Human), UniProt P08581, Y1235D)
Text: as §1

[39] = target: TESK1 (Homo sapiens (Human), UniProt Q15569)
Text: as §1

ASK2, sequence (O95382 whole entry): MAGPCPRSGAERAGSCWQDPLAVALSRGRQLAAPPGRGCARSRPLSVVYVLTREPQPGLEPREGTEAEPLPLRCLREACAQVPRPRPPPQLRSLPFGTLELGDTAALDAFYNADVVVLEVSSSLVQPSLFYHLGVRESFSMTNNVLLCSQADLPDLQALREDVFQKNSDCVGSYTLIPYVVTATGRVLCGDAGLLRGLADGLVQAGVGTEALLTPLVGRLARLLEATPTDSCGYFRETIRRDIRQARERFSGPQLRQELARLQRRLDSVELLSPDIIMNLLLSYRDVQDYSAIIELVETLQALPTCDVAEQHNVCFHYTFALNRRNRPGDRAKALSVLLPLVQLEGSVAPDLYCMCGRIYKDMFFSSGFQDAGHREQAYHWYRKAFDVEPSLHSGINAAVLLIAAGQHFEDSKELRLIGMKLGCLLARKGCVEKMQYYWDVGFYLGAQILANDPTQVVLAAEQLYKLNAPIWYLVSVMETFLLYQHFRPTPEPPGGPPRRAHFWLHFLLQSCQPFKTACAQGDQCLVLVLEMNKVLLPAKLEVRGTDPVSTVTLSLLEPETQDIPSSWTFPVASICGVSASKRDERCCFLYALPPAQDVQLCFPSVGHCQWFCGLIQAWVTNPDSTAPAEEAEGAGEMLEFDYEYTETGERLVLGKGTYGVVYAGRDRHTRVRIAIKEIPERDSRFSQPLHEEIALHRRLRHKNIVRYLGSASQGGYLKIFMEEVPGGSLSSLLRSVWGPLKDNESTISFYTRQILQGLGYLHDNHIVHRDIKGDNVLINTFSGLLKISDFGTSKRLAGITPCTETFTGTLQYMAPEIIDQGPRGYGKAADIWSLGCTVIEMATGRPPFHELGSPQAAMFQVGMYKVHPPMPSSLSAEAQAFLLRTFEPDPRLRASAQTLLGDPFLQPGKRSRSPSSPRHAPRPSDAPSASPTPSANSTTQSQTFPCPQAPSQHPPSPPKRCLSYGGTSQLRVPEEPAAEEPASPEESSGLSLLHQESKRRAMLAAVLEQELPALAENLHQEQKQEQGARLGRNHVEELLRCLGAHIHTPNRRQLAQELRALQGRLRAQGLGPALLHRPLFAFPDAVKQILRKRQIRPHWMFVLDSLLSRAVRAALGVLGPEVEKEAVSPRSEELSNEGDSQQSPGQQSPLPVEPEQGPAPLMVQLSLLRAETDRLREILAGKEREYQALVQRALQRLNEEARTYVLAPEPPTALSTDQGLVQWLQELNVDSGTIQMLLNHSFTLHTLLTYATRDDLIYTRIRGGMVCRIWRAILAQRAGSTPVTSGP
KIT-autoinhibited, sequence (P10721 546-976 limits assumed): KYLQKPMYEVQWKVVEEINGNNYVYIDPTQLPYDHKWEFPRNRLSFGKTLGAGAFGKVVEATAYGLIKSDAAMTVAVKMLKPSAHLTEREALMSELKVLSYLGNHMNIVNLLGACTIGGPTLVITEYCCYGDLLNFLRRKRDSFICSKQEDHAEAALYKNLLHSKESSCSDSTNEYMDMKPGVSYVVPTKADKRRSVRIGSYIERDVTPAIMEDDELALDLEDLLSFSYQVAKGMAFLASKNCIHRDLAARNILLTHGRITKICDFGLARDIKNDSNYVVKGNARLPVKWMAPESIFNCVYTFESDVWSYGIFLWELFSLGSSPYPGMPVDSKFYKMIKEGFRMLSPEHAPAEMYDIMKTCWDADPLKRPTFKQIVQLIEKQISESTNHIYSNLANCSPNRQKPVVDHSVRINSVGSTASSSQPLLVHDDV
MYLK2, sequence (Q9H1R3 whole entry): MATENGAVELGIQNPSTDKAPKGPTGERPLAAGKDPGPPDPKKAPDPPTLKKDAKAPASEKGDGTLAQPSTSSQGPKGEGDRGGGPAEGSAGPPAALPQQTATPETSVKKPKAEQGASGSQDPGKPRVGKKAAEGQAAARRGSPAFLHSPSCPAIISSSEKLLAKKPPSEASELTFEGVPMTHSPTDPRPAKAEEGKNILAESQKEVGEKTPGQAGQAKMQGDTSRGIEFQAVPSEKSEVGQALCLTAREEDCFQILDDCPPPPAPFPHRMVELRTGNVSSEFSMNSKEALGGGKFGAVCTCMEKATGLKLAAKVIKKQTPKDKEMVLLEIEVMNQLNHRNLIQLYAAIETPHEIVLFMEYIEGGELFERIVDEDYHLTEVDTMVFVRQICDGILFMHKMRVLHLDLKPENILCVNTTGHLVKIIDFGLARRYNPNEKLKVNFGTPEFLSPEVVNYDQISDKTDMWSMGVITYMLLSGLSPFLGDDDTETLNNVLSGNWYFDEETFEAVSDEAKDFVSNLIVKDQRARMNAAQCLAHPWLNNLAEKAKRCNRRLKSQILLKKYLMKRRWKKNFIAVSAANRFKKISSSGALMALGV
ACVR2A, sequence (P27037 20-513): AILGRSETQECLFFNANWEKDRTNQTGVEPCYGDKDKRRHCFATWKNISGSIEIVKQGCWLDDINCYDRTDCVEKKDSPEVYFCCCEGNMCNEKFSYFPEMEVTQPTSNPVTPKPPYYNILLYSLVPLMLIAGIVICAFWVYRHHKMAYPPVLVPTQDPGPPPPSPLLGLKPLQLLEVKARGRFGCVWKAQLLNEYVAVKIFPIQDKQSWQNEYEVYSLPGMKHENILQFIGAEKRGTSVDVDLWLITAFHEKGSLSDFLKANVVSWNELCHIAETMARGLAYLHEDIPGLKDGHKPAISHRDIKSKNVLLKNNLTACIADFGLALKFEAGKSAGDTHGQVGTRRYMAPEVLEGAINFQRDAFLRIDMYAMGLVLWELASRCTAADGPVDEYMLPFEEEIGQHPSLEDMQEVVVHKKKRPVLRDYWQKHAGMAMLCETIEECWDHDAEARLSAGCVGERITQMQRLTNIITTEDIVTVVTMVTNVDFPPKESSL
PKN1, sequence (Q16512 whole entry): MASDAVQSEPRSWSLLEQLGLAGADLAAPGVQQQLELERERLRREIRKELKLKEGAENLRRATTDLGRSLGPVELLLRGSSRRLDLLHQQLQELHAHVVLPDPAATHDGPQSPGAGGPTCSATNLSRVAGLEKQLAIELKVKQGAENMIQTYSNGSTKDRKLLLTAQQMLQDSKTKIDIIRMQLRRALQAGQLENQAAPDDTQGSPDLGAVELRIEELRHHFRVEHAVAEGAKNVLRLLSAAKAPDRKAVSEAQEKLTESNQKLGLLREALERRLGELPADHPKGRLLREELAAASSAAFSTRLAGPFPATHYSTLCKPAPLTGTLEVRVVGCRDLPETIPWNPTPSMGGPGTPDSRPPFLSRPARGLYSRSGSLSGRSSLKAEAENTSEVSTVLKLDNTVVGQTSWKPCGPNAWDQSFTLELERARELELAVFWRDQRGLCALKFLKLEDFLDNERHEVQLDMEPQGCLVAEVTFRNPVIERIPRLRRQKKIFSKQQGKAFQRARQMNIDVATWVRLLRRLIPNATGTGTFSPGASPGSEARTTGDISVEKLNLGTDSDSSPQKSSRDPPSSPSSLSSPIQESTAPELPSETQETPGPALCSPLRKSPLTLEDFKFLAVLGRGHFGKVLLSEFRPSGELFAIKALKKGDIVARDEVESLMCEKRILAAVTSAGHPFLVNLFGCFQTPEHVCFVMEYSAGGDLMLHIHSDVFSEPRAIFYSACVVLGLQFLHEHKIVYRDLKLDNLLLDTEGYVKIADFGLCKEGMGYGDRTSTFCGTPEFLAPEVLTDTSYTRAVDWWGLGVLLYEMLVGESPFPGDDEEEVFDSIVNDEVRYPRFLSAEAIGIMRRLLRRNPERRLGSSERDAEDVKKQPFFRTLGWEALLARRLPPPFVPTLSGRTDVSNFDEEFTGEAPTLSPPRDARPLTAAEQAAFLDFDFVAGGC
PIK3CB, sequence (P42338 whole entry): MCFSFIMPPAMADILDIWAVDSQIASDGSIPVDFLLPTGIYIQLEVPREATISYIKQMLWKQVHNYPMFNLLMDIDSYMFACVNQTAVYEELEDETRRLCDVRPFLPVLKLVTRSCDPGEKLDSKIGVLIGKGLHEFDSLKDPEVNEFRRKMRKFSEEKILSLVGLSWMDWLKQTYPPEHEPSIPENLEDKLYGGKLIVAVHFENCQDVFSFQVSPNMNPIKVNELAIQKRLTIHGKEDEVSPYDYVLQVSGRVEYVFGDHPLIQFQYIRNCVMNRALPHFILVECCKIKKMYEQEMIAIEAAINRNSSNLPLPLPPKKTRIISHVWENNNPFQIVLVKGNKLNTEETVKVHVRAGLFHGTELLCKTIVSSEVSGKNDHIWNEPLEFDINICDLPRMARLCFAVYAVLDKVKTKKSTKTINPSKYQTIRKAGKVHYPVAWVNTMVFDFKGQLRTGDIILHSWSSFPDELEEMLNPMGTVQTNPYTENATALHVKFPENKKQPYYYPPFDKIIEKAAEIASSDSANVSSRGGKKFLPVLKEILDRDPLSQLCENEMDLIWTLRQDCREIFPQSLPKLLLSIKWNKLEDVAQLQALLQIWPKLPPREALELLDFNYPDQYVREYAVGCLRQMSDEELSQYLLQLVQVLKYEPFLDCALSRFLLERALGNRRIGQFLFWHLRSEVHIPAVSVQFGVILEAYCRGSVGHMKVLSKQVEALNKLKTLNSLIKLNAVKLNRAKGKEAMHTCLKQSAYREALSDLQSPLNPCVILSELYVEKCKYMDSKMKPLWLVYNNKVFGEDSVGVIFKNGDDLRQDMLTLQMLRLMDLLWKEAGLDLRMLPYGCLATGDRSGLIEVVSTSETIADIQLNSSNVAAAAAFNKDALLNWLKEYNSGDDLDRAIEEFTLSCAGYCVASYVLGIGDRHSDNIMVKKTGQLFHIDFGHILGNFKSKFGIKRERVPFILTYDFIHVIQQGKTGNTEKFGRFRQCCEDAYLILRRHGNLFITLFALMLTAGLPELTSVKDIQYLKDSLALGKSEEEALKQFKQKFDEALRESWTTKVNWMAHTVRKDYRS

## CCN1CCN(Cc2ccc(Nc3nc4ccc(Oc5ccnc(NC(C)=O)c5)cc4n3C)cc2C(F)(F)F)CC1 [Compound I-2]
[1]
  remaining binding at 1 µM: 92%
[2]
  remaining binding at 1 µM: 45%
[3]
  remaining binding at 1 µM: 30%
[4]
  remaining binding at 1 µM: 100%
[5]
  remaining binding at 1 µM: 97%
[6]
  remaining binding at 1 µM: 98%
[7]
  remaining binding at 1 µM: 96%
[8]
  remaining binding at 1 µM: 85%
[9]
  remaining binding at 1 µM: 88%
[10]
  remaining binding at 1 µM: 100%
[11]
  remaining binding at 1 µM: 100%
[12]
  remaining binding at 1 µM: 85%
[13]
  remaining binding at 1 µM: 100%
[14]
  remaining binding at 1 µM: 92%
[15]
  remaining binding at 1 µM: 88%
[16]
  remaining binding at 1 µM: 75%
[17]
  remaining binding at 1 µM: 72%
[18]
  remaining binding at 1 µM: 79%
[19]
  remaining binding at 1 µM: 53%
[20]
  remaining binding at 1 µM: 37%
[21]
  remaining binding at 1 µM: 95%
[22]
  remaining binding at 1 µM: 57%
[23]
  remaining binding at 1 µM: 100%
[24]
  remaining binding at 1 µM: 100%
[25]
  remaining binding at 1 µM: 58%
[26]
  remaining binding at 1 µM: 76%
[27]
  remaining binding at 1 µM: 100%
[28]
  remaining binding at 1 µM: 72%
[29]
  remaining binding at 1 µM: 66%
[30]
  remaining binding at 1 µM: 92%
[31]
  remaining binding at 1 µM: 78%
[32]
  remaining binding at 1 µM: 100%
[33]
  remaining binding at 1 µM: 16%
[34]
  remaining binding at 1 µM: 100%
[35]
  remaining binding at 1 µM: 99%
[36]
  remaining binding at 1 µM: 79%
[37]
  remaining binding at 1 µM: 1.2%
[38]
  remaining binding at 1 µM: 71%
[39]
  remaining binding at 1 µM: 67%

## CCN1CCN(Cc2ccc(Nc3nc4ccc(Oc5ccnc(NC(C)=O)c5)c(C)c4n3C)cc2C(F)(F)F)CC1 [Compound I-6, N-(4-(2-(4-((4-ethylpiperazin-1-yl)methyl)-3-(trifluoromethyl)phenylamino)-1,7-dimethyl-1H-benzo[d]imidazol-6-yloxy)pyridin-2-yl)acetamide]
[1]
  remaining binding at 1 µM: 93%
[2]
  remaining binding at 1 µM: 30%
[3]
  remaining binding at 1 µM: 33%
[4]
  remaining binding at 1 µM: 100%
[5]
  remaining binding at 1 µM: 89%
[6]
  remaining binding at 1 µM: 99%
[7]
  remaining binding at 1 µM: 74%
[8]
  remaining binding at 1 µM: 83%
[9]
  remaining binding at 1 µM: 89%
[10]
  remaining binding at 1 µM: 92%
[11]
  remaining binding at 1 µM: 100%
[12]
  remaining binding at 1 µM: 95%
[13]
  remaining binding at 1 µM: 92%
[14]
  remaining binding at 1 µM: 94%
[15]
  remaining binding at 1 µM: 77%
[16]
  remaining binding at 1 µM: 29%
[17]
  remaining binding at 1 µM: 88%
[18]
  remaining binding at 1 µM: 84%
[19]
  remaining binding at 1 µM: 75%
[20]
  remaining binding at 1 µM: 27%
[21]
  remaining binding at 1 µM: 71%
[22]
  remaining binding at 1 µM: 100%
[23]
  remaining binding at 1 µM: 96%
[24]
  remaining binding at 1 µM: 74%
[25]
  remaining binding at 1 µM: 62%
[26]
  remaining binding at 1 µM: 82%
[27]
  remaining binding at 1 µM: 82%
[28]
  remaining binding at 1 µM: 100%
[29]
  remaining binding at 1 µM: 100%
[30]
  remaining binding at 1 µM: 100%
[31]
  remaining binding at 1 µM: 76%
[32]
  remaining binding at 1 µM: 100%
[33]
  remaining binding at 1 µM: 0.95%
[34]
  remaining binding at 1 µM: 69%
[35]
  remaining binding at 1 µM: 100%
[36]
  remaining binding at 1 µM: 99%
[37]
  remaining binding at 1 µM: 1.5%
[38]
  remaining binding at 1 µM: 44%
[39]
  remaining binding at 1 µM: 62%
